From patent US7202280B2, “Methods for the treatment and prevention of pancreatitis and for induction of liver regeneration” (priority 2002, dated 2007)

System: syngenic and metallothionein-SSAT mice
Assay: Hepatic, pancreatic and renal polyamine concentration in syngenic and metallothionein-SSAT mice after analogue
Format: in vivo, mouse
Conditions: 24 h before sacrifice
Experimental: α-methylspermidine, Bis-α-methylspermine and α-methylspermine were administered in saline. […] The data are expressed as means ±S.D. For statistical analysis, the two-tailed Student's t test was used.

SMILES: CC(N)CCNCCCCNCCC(C)N (stereo not drawn) [bis-α-methylspermine, 1,12-dimethylspermine]
- hepatic concentration, Bis-α-Methylspermine (Sg (syngenic) mice, 12.5 mg/kg): 159.88 pmoles/mg tissue wet weight
- hepatic polyamine concentration, N^8-Acetylspermidine (Sg (syngenic) mice, 12.5 mg/kg): 0.75 pmoles/mg tissue wet weight
- hepatic polyamine concentration, Putrescine (Sg (syngenic) mice, 12.5 mg/kg): 92.42 pmoles/mg tissue wet weight
- hepatic polyamine concentration, Spermidine (Sg (syngenic) mice, 12.5 mg/kg): 927.28 pmoles/mg tissue wet weight
- hepatic polyamine concentration, Spermine (Sg (syngenic) mice, 12.5 mg/kg): 708.04 pmoles/mg tissue wet weight
- pancreatic concentration, Bis-α-Methylspermine (Sg (syngenic) mice, 12.5 mg/kg): 259.30 ± 10.04 pmoles/mg tissue wet weight
- pancreatic polyamine concentration, N^8-Acetylspermidine (Sg (syngenic) mice, 12.5 mg/kg): 60.41 pmoles/mg tissue wet weight
- pancreatic polyamine concentration, Putrescine (Sg (syngenic) mice, 12.5 mg/kg): 298.55 ± 75.14 *^+ pmoles/mg tissue wet weight
- pancreatic polyamine concentration, Spermidine (Sg (syngenic) mice, 12.5 mg/kg): 6575.15 ± 614.21 ^+ pmoles/mg tissue wet weight
- pancreatic polyamine concentration, Spermine (Sg (syngenic) mice, 12.5 mg/kg): 981.28 ± 201.81 ^+ pmoles/mg tissue wet weight
- renal concentration, Bis-α-Methylspermine (Sg (syngenic) mice, 12.5 mg/kg): 259.30 pmoles/mg tissue wet weight
- renal polyamine concentration, N^1-Acetylspermidine (Sg (syngenic) mice, 12.5 mg/kg): 33.17 pmoles/mg tissue wet weight
- renal polyamine concentration, N^8-Acetylspermidine (Sg (syngenic) mice, 12.5 mg/kg): 17.62 ± 6.43 pmoles/mg tissue wet weight
- renal polyamine concentration, Putrescine (Sg (syngenic) mice, 12.5 mg/kg): 142.47 pmoles/mg tissue wet weight
- renal polyamine concentration, Spermidine (Sg (syngenic) mice, 12.5 mg/kg): 246.29 pmoles/mg tissue wet weight
- renal polyamine concentration, Spermine (Sg (syngenic) mice, 12.5 mg/kg): 456.65 pmoles/mg tissue wet weight
- hepatic concentration, Bis-α-Methylspermine (Sg (syngenic) mice, 25 mg/kg): 317.22 pmoles/mg tissue wet weight
- hepatic polyamine concentration, N^8-Acetylspermidine (Sg (syngenic) mice, 25 mg/kg): 2.38 pmoles/mg tissue wet weight
- hepatic polyamine concentration, Putrescine (Sg (syngenic) mice, 25 mg/kg): 73.69 pmoles/mg tissue wet weight
- hepatic polyamine concentration, Spermidine (Sg (syngenic) mice, 25 mg/kg): 879.17 pmoles/mg tissue wet weight
- hepatic polyamine concentration, Spermine (Sg (syngenic) mice, 25 mg/kg): 699.86 pmoles/mg tissue wet weight
- pancreatic concentration, Bis-α-Methylspermine (Sg (syngenic) mice, 25 mg/kg): 343.17 ± 35.11 pmoles/mg tissue wet weight
- pancreatic polyamine concentration, Putrescine (Sg (syngenic) mice, 25 mg/kg): 467.21 ± 419.85^++ pmoles/mg tissue wet weight
- pancreatic polyamine concentration, Spermidine (Sg (syngenic) mice, 25 mg/kg): 5733.90 ± 300.80 ^+ pmoles/mg tissue wet weight
- pancreatic polyamine concentration, Spermine (Sg (syngenic) mice, 25 mg/kg): 528.55 ± 241.57 ^+ pmoles/mg tissue wet weight
- renal concentration, Bis-α-Methylspermine (Sg (syngenic) mice, 25 mg/kg): 343.17 pmoles/mg tissue wet weight
- renal polyamine concentration, N^1-Acetylspermidine (Sg (syngenic) mice, 25 mg/kg): 28.39 pmoles/mg tissue wet weight
- renal polyamine concentration, N^8-Acetylspermidine (Sg (syngenic) mice, 25 mg/kg): 17.70 ± 10.63 pmoles/mg tissue wet weight
- renal polyamine concentration, Putrescine (Sg (syngenic) mice, 25 mg/kg): 87.46 pmoles/mg tissue wet weight
- renal polyamine concentration, Spermidine (Sg (syngenic) mice, 25 mg/kg): 257.13 pmoles/mg tissue wet weight
- renal polyamine concentration, Spermine (Sg (syngenic) mice, 25 mg/kg): 459.99 pmoles/mg tissue wet weight
- hepatic concentration, Bis-α-Methylspermine (Sg (syngenic) mice, 37.5 mg/kg): 283.40 pmoles/mg tissue wet weight
- hepatic polyamine concentration, N^1-Acetylspermidine (Sg (syngenic) mice, 37.5 mg/kg): 14.57 pmoles/mg tissue wet weight
- hepatic polyamine concentration, N^8-Acetylspermidine (Sg (syngenic) mice, 37.5 mg/kg): 2.10 pmoles/mg tissue wet weight
- hepatic polyamine concentration, Putrescine (Sg (syngenic) mice, 37.5 mg/kg): 96.27 pmoles/mg tissue wet weight
- hepatic polyamine concentration, Spermidine (Sg (syngenic) mice, 37.5 mg/kg): 772.68 pmoles/mg tissue wet weight
- hepatic polyamine concentration, Spermine (Sg (syngenic) mice, 37.5 mg/kg): 754.59 pmoles/mg tissue wet weight
- pancreatic concentration, Bis-α-Methylspermine (Sg (syngenic) mice, 37.5 mg/kg): 415.40 ± 92.86 pmoles/mg tissue wet weight
- pancreatic polyamine concentration, N^1-Acetylspermidine (Sg (syngenic) mice, 37.5 mg/kg): 123.67 pmoles/mg tissue wet weight
- pancreatic polyamine concentration, N^8-Acetylspermidine (Sg (syngenic) mice, 37.5 mg/kg): 55.34 pmoles/mg tissue wet weight
- pancreatic polyamine concentration, Putrescine (Sg (syngenic) mice, 37.5 mg/kg): 233.06 ± 45.81 *^+ pmoles/mg tissue wet weight
- pancreatic polyamine concentration, Spermidine (Sg (syngenic) mice, 37.5 mg/kg): 5997.63 ± 24.26 ^+ pmoles/mg tissue wet weight
- pancreatic polyamine concentration, Spermine (Sg (syngenic) mice, 37.5 mg/kg): 708.66 ± 179.23 ^++ pmoles/mg tissue wet weight
- renal concentration, Bis-α-Methylspermine (Sg (syngenic) mice, 37.5 mg/kg): 415.40 pmoles/mg tissue wet weight
- renal polyamine concentration, N^1-Acetylspermidine (Sg (syngenic) mice, 37.5 mg/kg): 28.73 pmoles/mg tissue wet weight
- renal polyamine concentration, N^8-Acetylspermidine (Sg (syngenic) mice, 37.5 mg/kg): 15.95 ± 6.92 pmoles/mg tissue wet weight
- renal polyamine concentration, Putrescine (Sg (syngenic) mice, 37.5 mg/kg): 93.95 pmoles/mg tissue wet weight
- renal polyamine concentration, Spermidine (Sg (syngenic) mice, 37.5 mg/kg): 289.83 pmoles/mg tissue wet weight
- renal polyamine concentration, Spermine (Sg (syngenic) mice, 37.5 mg/kg): 513.58 pmoles/mg tissue wet weight
- hepatic concentration, Bis-α-Methylspermine (Sg (syngenic) mice, 50 mg/kg): 379.77 pmoles/mg tissue wet weight
- hepatic polyamine concentration, N^8-Acetylspermidine (Sg (syngenic) mice, 50 mg/kg): 8.72 pmoles/mg tissue wet weight
- hepatic polyamine concentration, Putrescine (Sg (syngenic) mice, 50 mg/kg): 52.40 pmoles/mg tissue wet weight
- hepatic polyamine concentration, Spermidine (Sg (syngenic) mice, 50 mg/kg): 688.44 pmoles/mg tissue wet weight
- hepatic polyamine concentration, Spermine (Sg (syngenic) mice, 50 mg/kg): 687.71 pmoles/mg tissue wet weight
- pancreatic concentration, Bis-α-Methylspermine (Sg (syngenic) mice, 50 mg/kg): 459.26 ± 18.65 pmoles/mg tissue wet weight
- pancreatic polyamine concentration, N^8-Acetylspermidine (Sg (syngenic) mice, 50 mg/kg): 82.23 pmoles/mg tissue wet weight
- pancreatic polyamine concentration, Putrescine (Sg (syngenic) mice, 50 mg/kg): 297.48 ± 123.94^++ pmoles/mg tissue wet weight
- pancreatic polyamine concentration, Spermidine (Sg (syngenic) mice, 50 mg/kg): 5613.06 ± 608.55 ^++ pmoles/mg tissue wet weight
- pancreatic polyamine concentration, Spermine (Sg (syngenic) mice, 50 mg/kg): 561.50 ± 77.66 ^++ pmoles/mg tissue wet weight
- renal concentration, Bis-α-Methylspermine (Sg (syngenic) mice, 50 mg/kg): 459.26 pmoles/mg tissue wet weight
- renal polyamine concentration, N^8-Acetylspermidine (Sg (syngenic) mice, 50 mg/kg): 21.07 ± 5.81 pmoles/mg tissue wet weight
- renal polyamine concentration, Putrescine (Sg (syngenic) mice, 50 mg/kg): 98.32 pmoles/mg tissue wet weight
- renal polyamine concentration, Spermidine (Sg (syngenic) mice, 50 mg/kg): 248.63 pmoles/mg tissue wet weight
- renal polyamine concentration, Spermine (Sg (syngenic) mice, 50 mg/kg): 424.06 pmoles/mg tissue wet weight
- hepatic concentration, Bis-α-Methylspermine (Tg (transgenic) mice, 12.5 mg/kg): 29.55 pmoles/mg tissue wet weight
